Five compounds from US12091423B2, “Substituted 3,4,12,12a-tetrahydro-1H-[1,4]oxazino[3,4-c]pyrido[2,1-f][1,2,4]triazine-6,8-dione, pharmaceutical composition, method for the production and use thereof” (VIRIOM, INC., priority 2019, dated 2024) can be followed below.

The EC50 is the midpoint of the concentration-response curve. Lower therefore signals a more potent agent.

Where only a bound is given, the exact number is not on record here.

This test relates to influenza A/California/2009 (H1N1). The experiment in a line: microbe, parasite or virus in culture. Format: cell-based. To be noted: H1N1, MDCK.

`O=C1c2c(O)c(=O)ccn2N(C(c2ccccc2)c2ccccc2)[C@@H]2COCCN12` [1.13.2, (12aR)-7-hydroxy-12-diphenylmethyl-3,4,12,12a-tetrahydro-1H-[1,4]oxazino[3,4-c]pyrido[2,1-f][1,2,4]triazine-6,8-dione]: the EC50 fell in the range of 2 to 4 nM.
With `O=C1c2c(O)c(=O)ccn2N([C@@H]2c3ccc(F)c(F)c3CSc3ccsc32)[C@@H]2COCCN12` [1.3.2, (12aR)-7-hydroxy-12-[(10R)-6,7-difluoro-5,10-dihydrothieno[3,2-c][2]benzothiepin-10-yl]-3,4,12,12a-tetrahydro-1H-[1,4]oxazino[3,4-c]pyrido[2,1-f][1,2,4]triazine-6,8-dione], the EC50 is < 0.3 nM.
Consider `O=C1c2c(O)c(=O)ccn2N([C@@H](c2ccccc2)c2ccc(F)c(F)c2)[C@@H]2COCCN12` [1.9.2, (12aR)-7-hydroxy-12-[(S)-(3,4-difluorophenyl)(phenyl)methyl]-3,4,12,12a-tetrahydro-1H-[1,4]oxazino[3,4-c]pyrido[2,1-f][1,2,4]triazine-6,8-dione], for which the EC50 fell in the range of 2 to 4 nM.
As to `O=C1c2c(O)c(=O)ccn2N(C(c2ccc(F)cc2)c2ccc(F)cc2)[C@@H]2COCCN12` [1.14.2, (12aR)-7-hydroxy-12-[bis(4-fluorophenyl)methyl]-3,4,12,12a-tetrahydro-1H-[1,4]oxazino[3,4-c]pyrido[2,1-f][1,2,4]triazine-6,8-dione], the EC50 lay in the range of 2 to 4 nM.
`O=C1c2c(O)c(=O)ccn2N([C@H](c2ccccc2)c2ccc(F)c(F)c2)[C@@H]2COCCN12` [1.8.2, (12aR)-7-hydroxy-12-[(R)-(3,4-difluorophenyl)(phenyl)methyl]-3,4,12,12a-tetrahydro-1H-[1,4]oxazino[3,4-c]pyrido[2,1-f][1,2,4]triazine-6,8-dione] had an EC50 of 2 to 4 nM.
